# Source: patent EP0100569A1, “Spasmolytically active (+)S-enantiomer of secoverine” (DUPHAR INT[…] B.V, priority 1982, dated 1984)
# Where a name gives a salt, the structure may show the parent alone.
# Key:
# [1] = test system: vas deferens of the rat; experiment: Potentiation of the activity of noradrenaline on the vas deferens in vitro; type: cell-based; settings: for EC (2-fold shift): Rattus norvegicus, negative logarithm of the molar concentration giving a shift to the left of a factor 2 of the noradrenaline curve, read-out: pP2-value (converted); for noradrenaline potentiation: rat vas deferens in vitro
# Text: The test used is a modification of the method as described by Ursillo and Jacobsen, J. Pharmacol. Ex. Ther. 148, (1965), 247.
# The smallest dose which gave a potentiating effect was […], and the potentiating activity was maximum in a quantity of 5 x 10 7M. Higher dosages caused a non--specific decrease of the maximum of the noradrenaline curve.
# For quantifying the effect at the 50% point of the contraction curve (maximum of the control noradrenaline curve = 100%), the shift of the curve obtained with the compound to be tested (expressed as DR) was measured. The pP2-values were calculated in the same manner as the pA2-values mentioned sub b), according to the equation
# ^pP2 ^= -log [secoverine] + log (DR-1).
# [2] = test system: guinea pig ileum; experiment: Peripheral spasmolytic activity in vitro, 4-point analysis, carbachol as spasmogen; type: cell-based
# Experimental: These tests were carried out according to the normal 4--point analysis in which the termina-1 guinea pig ileum was used as isolated organ and carbachol was used as a cholinergic spasmogen.
# (§1) The required organs were isolated from killed guinea pigs and the contents and adherent tissues were carefully removed from suitable pieces. The said organs were then suspended in a bath containing 50 ml of Tyrode solution through which oxygen was led. The spasmogenically active substance (carbachol) was added to the bath inter- mittem tly and, after a constant response to the spasmogen had been obtained, the spasmolytic activity of the substances to be tested was measured by adding them to the bath 30 seconds prior to the spasmogen.
# The relative activity of the (+)-enantiomer of secoverine as compared with the racemate was calculated fron, a series of 4-point assays: the (+)-enantiomer of secoverine was 1.86 times as active as the racemate.
# [3] = test system: cornea of male mice; experiment: Local anaesthetic activity on the cornea; type: in vivo; settings: concentration of solution giving local anaesthesia in 50% of the animals, 10 per dose, determined graphically
# Experimental: The anaesthetic activity on the cornea of male mice (18-22 g), 10 animals per dose, was determined according to the method by Weidmann and Petersen, J. Pharmacol. Exp. Ther., 115 (1955), 246. The concentration of the solution of the compounds which gave local anaesthesia in 50% of the animals was determined graphically (EC50--value): […]
# [4] = test system: rat jejunum; experiment: Peripheral spasmolytic activity in vitro, furtrethonium as spasmogen; type: cell-based
# Experimental: as §1
# Similar results were obtained by using rat jejunum as an organ and using furtrethonium as a spasmogenically active substance: the (+)-enantiomer of secoverine now was 2.10 times as active as the racemate.
# [5] = test system: guinea pigs; experiment: Anticholinergic activity in vivo, carbachol as spasmogen; settings: i.v.
# Experimental: These tests were carried out according to the method by J.M.A. Zwagemakers, Arzneimittelforschung, 30 (II), (1980), 1517-1526 in which carbachol was used as a spasmogenically active substance. After a constant response to the spasmogen had been obtained, the compound to be tested was administered intravenously (i.v.) to guinea pigs 3 minutes prior to the next quantity of spasmogenically active substance. The activity of the compounds was determined for 52 minutes. Contractions obtained after preceding administration of the substance to be tested were expressed as percentages of the average of two control values and were plotted graphically. The average percentage of inhibition during the period of 52 minutes was calculated from the area under the curve, and the maximum inhibition and the duration of the spasmolytic activity were estimated by means of the time-contraction curve. The spasmolytic activity is considered to be terminated when two successive contractions show less than 20% inhibition.
Compound,EC (2-fold shift) [1],noradrenaline potentiation [1],"relative activity as compared with the racemate ([2]; guinea pig ileum, carbachol, series of 4-point assays)",anticholinergic spasmolytic activity in peripheral organs relative to the racemate ([2]; summary statement),EC50-value (% w/vol) [3],relative activity as compared with the racemate [4],activity in vivo relative to the racemate [5]
"CCN(CCCC(=O)C1CCCCC1)[C@@H](C)Cc1ccc(OC)cc1 [(+)-enantiomer of secoverine, (+)S-1-cyclohexyl-4-[ethyl(p-methoxy-α-methylphenethyl)--amino]-l-butanone hydrochloride]",0.263 µM,significant noradrenaline potentiation,1.86 times,approximately twice as strong,0.20 % w/vol,2.10 times,about twice as active
CCN(CCCC(=O)C1CCCCC1)[C@H](C)Cc1ccc(OC)cc1 [(-)-enantiomer of secoverine],0.17 µM,significant noradrenaline potentiation,,,0.08 % w/vol,,
CCN(CCCC(=O)C1CCCCC1)C(C)Cc1ccc(OC)cc1 (racemic) [racemate],0.309 µM,significant noradrenaline potentiation,,,0.13 % w/vol,,
